Data published in patent publication US11685717B2, “Polypeptide integrin antagonists” (The General Hospital Corporation, priority 2018, dated 2023).
Entries after “also recorded” stand apart in the source; their conditions may differ. Positions of bridges follow the written chain, without caps; N, C: chain ends. Non-standard residues stand in square brackets, D forms with d. Residues, ends and D or L forms follow the SMILES beside them. hArg = N=C(N)NCCCC[C@H](N)C(=O)O; Mpa = O=C(O)CCS

Key:
human platelets [1] = experiment: Thrombin-induced clot retraction in human platelet-rich plasma; format: cell-based
Protocol: 750 μL of Tyrode's buffer supplemented with inhibitor was mixed in a glass culture tube with 200 μL of PRP and 5 μL red blood cells. Clotting was initiated by addition of 50 μL thrombin at 10 units/mL in saline and a sealed Pasteur pipette secured in the tube center. Digital photographs of the experiment were taken at 15-minute intervals over 2 hours. Images were analyzed with ImageJ software to determine the area occupied by the clot and plasma. Plots of the relative areas and linear regressions were performed with SigmaPlot (Systat Software, San Jose, Calif.).
No ligands were added to the control tube. Photographs were taken immediately after thrombin addition (FIG. 5A) and at the end of the reaction (FIG. 5B). Clot retraction around the central glass rod placed in each glass test tube before thrombin addition is shown. 5 μL of red blood cells were added per 1 mL reaction to enhance the color contrast for photography.
Clot retraction normally helps secure hemostasis in vivo as evidenced by increased bleeding in mice with impaired clot retraction (see e.g., Leon et al, Blood 110, 3183-3191, doi:10.1182/blood-2007-03-080184 (2007)), or in recipients of any of the three anti-αIIbβ3 drugs (see e.g., Tutwiler et al, Biophys. J. 112, 714-723 (2017); Osdoit et al, J. Biol. Chem. 276, 6703-6710 (2001); Haling et al, Blood 117, 1719-1722 (2011)). The effects of Hr10 and eptifibatide on thrombin-induced clot retraction in fresh human platelet-rich plasma (PRP) (see e.g., Tucker et al, Methods Mol. Biol. 788, 101-107 (2012)) were compared. The kinetics of clot retraction were determined from quantification of serial images of the reaction acquired every 15 minutes for the 2-hour duration of the assay. […] Thrombolysis, 15, 71-80 (2003).

human platelets [2] = experiment: Surface expression of CD62P and CD63 on human platelets (flow cytometry); format: cell-based; details: 1.5 μM; ADP 20 μM; FIG. 11F
Protocol: αVβ3-K562 cells or transiently transfected HEK293T (0.5×10^6 in 100 μL WB) were incubated in the absence or presence of unlabeled Hr10 or eptifibatide, each at 1.5 μM, for 20 min at RT. Alexa647-labeled AP5 Fab or unlabeled anti-LIBS-1 (each to 10 μg/mL) were added, and cells incubated for an additional 30 min before washing. Alexa647-labeled AP3 was used for normalization of integrin expression. APC-labeled goat anti-mouse Fc-specific antibody was added to anti-LIBS-1-bound cells for an additional 30 min at 4° C., cells washed and processed for flow cytometry. Binding of anti-CD62 and anti-CD63 mAbs to platelets was performed by incubating (20 min, RT) 100 μL of ligand-pretreated 3.2% sodium citrate whole blood with either Alexa488-labeled mAb (at 10 μg/mL) in the presence of 10 μg/mL Alexa647-labeled anti-CD42b. Cells were fixed in 2% paraformaldehyde and CD62 and CD63 expression was analyzed by flow cytometry in the CD42b positive population.

αIIbβ3 = target: T1, αIIbβ3 (Homo sapiens, UniProt P05106+P08514); experiment: Binding of conformation-sensitive mAbs AP5 / LIBS-1 to human platelets; format: cell-based
T1 construct: expressed in transfected cells; host or cells: K562

human platelets [3] = experiment: Cremaster laser injury thrombosis in vWF RH/RH NSG mice infused with human platelets; format: in vivo; details: eptifibatide 5 μg/mouse, Hr10 60 μg/mouse (equimolar), infused 5 min before injury; FIG. 13A
Protocol: Human blood was collected in 0.129 M sodium citrate (10:1 vol/vol). Blood was obtained from healthy donors after informed consent. Platelet-rich plasma (PRP) was separated after centrifugation (200 g, 10 minutes) at room temperature (RT). The platelets were then isolated from PRP, and prostaglandin E1 (Sigma-Aldrich) added to a final concentration of 1 μM. Platelets were then pelleted by centrifugation (800 g, 10 minutes) at RT. The pellet was washed in calcium-free Tyrode's buffer (134 mM NaCl, 3 mM KCl, 0.3 mM NaH2PO4, 2 mM MgCl2, 5 mM HEPES, 5 mM glucose, 0.1% NaHCO3, and 1 mM EGTA, pH 6.5), and re-suspended in CATCH buffer (PBS and 1.5% bovine serum albumin, 1 mM adenosine, 2 mM theophylline, 0.38% sodium citrate, all from Sigma-Aldrich). Platelet counts were determined using a HemaVet counter (Drew Scientific). Intravital microscopy was performed as previously described (see e.g., Celi et al, J. Thromb. Haemost. 1, 60-68 (2003); and Neyman et al, Blood, 112, 1101-1108 (2008)). vWF^RH RHNSG male mice were studied after being anesthetized using sodium pentobarbital (80 mg/kg) injected intraperitoneally. Mice were maintained under anesthesia with the same anesthetic delivered via a catheterized jugular vein at 5 mg/mL throughout the experiment. […]

[4] = Tail bleeding in vWF RH/RH NSG mice infused with human platelets; details: mouse, in vivo
Protocol: Pentobarbital-anesthetized vWF^RH RHNSG mice were infused retroorbitally with 8×10^8 washed human platelets in a final volume of 200 μL (so that ˜40% of the circulating platelets were human). After 5 minutes PBS, 3 μM eptifibatide or Hr10 were administered IV. After another 5 minutes, mouse tail injury was produced by amputating an 8-mm terminal tail segment using a razor blade, which was then placed in a collection tube containing sterile water at 37° C. for 10 minutes. The hemoglobin level in the water was measured by a spectrophotometer, as described (see e.g., Greene et al, J. Thromb. Haemost. 8, 2820-2822 (2010)) with the following modifications. Briefly, the hemolyzed whole blood/water mixture was centrifuged at 21,000×g for 5 minutes. Aliquots (20 μL) of clarified, stroma-free supernatant were diluted 10-fold in a Corning 96-well micro-plate and light absorbance measured at 575 nm (Spectramax-190 plate reader, Molecular Devices, San Jose, Calif.). Blood loss during the 10-minute window was measured based on a previously obtained standard curve.

T1 sequence (P08514 32-887 limits assumed): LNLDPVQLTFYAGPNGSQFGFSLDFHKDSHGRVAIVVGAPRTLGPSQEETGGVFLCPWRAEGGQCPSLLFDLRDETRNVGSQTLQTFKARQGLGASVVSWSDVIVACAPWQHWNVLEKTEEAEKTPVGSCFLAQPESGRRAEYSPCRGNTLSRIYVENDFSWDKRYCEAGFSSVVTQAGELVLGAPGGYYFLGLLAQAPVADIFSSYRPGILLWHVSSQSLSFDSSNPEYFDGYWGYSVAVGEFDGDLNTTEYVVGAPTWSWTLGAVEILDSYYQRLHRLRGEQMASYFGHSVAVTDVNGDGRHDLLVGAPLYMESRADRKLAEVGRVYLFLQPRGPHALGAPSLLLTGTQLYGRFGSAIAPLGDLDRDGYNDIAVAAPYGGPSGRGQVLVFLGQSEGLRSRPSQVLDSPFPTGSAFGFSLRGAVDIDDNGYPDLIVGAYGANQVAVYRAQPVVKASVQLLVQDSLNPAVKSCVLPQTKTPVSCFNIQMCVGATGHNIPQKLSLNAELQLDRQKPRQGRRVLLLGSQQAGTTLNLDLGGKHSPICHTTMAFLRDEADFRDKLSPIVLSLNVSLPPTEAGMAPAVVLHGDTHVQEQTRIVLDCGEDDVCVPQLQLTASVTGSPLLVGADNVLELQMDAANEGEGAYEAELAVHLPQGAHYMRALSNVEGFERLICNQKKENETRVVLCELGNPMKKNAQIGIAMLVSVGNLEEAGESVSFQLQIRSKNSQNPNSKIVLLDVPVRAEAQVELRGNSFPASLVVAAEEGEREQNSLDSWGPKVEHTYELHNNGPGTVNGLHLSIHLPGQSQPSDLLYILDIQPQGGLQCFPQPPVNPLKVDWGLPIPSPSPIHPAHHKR
T1 sequence (P08514 891-1039 partner limits assumed): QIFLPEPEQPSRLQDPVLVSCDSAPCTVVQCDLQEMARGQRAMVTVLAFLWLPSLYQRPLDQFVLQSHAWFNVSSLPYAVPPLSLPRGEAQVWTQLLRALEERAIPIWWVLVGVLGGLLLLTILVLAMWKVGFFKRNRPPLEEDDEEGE
T1 sequence (P05106 27-788): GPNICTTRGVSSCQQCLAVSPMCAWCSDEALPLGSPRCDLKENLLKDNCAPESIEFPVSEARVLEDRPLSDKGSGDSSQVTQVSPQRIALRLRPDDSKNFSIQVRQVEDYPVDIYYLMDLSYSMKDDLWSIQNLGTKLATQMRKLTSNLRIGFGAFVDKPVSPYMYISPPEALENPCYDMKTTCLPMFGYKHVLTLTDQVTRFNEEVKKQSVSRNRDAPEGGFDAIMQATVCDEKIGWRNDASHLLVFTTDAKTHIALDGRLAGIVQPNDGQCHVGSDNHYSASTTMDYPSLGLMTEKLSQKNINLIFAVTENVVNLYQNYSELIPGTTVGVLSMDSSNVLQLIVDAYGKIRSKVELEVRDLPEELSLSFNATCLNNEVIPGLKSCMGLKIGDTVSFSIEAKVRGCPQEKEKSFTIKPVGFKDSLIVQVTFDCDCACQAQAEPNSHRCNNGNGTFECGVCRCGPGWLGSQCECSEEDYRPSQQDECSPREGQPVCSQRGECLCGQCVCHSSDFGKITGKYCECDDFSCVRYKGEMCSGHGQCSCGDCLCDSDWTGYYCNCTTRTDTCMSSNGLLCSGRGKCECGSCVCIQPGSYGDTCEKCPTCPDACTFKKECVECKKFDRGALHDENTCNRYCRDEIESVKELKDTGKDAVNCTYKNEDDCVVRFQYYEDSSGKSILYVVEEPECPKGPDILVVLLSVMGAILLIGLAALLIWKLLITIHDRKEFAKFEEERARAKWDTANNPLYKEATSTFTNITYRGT

SMILES	Kinetics of thrombin-induced clot retraction vs. buffer (human platelets [1]; fresh human PRP, 2 hours, FIGS. 12A-12B, three experiments)	ADP-induced secretion from lysosomes (CD63 expression) (human platelets [2])	ADP-induced secretion from platelet α-granules (CD62P expression) (human platelets [2])	Conformational changes in αIIbβ3 reported by binding of mAbs AP5 and LIBS-1 (αIIbβ3; 1.5 μM, absence or presence of 5 μM ADP, FIG. 8D)	Nascent occlusive thrombus formation / human platelet accumulation at laser-induced arteriolar injury (human platelets [3])	Bleeding volume [4]	Bleeding in humanized mice ([4]; iv)	Kinetics of thrombin-induced clot retraction (human platelets [1]; FIG. 6E, three experiments, vs buffer control)	Clot retraction induced by α-thrombin (photographs) (human platelets [1]; tirofiban 1.5 μM, m-tirofiban 15 μM, α-thrombin 0.5 unit/mL, FIG. 5)	Induction of AP5 epitope expression on human platelets (αIIbβ3; tirofiban 150 nM, M-tirofiban 1.5 μM, ADP 5 μM, FIG. 6D)
N=C(N)NCCCC[C@@H]1NC(=O)CCSSC[C@@H](C(N)=O)NC(=O)[C@@H]2CCCN2C(=O)[C@H](Cc2c[nH]c3ccccc23)NC(=O)[C@H](CC(=O)O)NC(=O)CNC1=O [eptifibatide] ([Mpa][hArg]GDWPC-NH2; disulfide 1-7)	significantly blocked clot retraction; also recorded: clot retraction was significantly reduced	did not significantly alter; also recorded: No differences	did not significantly alter; also recorded: No differences	induced conformational changes in αIIbβ3	completely preventing nascent occlusive thrombus formation	~10 % of blood volume of a normal mouse	caused excessive bleeding	–	–	–
CCCCS(=O)(=O)N[C@@H](Cc1ccc(OCCCCC2CCNCC2)cc1)C(=O)O [tirofiban]	–	–	–	–	–	–	–	effectively blocked thrombin-induced clot retraction	completely blocked clot retraction	induced expression of the AP5 epitope
